# Reference: paper PMC12948427 (The Journal of Clinical Investigation, 2025)
# Tested on: HCoV-HKU1 VLP
# Format: cell-based
compound,measurement,value
"CCCC(=O)OC[C@@H](OC(=O)CCC)[C@@H](OC(=O)CCC)[C@H](Cn1c2nc(=O)[nH]c(=O)c-2nc2cc(C)c(C)cc21)OC(=O)CCC [RTB, riboflavin tetrabutyrate]",VLPs' release,concentration-dependent inhibition
